The assay relates to Alicyclobacillus acidoterrestris (JCM catalogue number 21547, IAM Culture Collection no. 15086). The assay is described as follows: MIC against Alicyclobacillus acidoterrestris in apple juice (OD600 and CFU counting). Type of assay: cell-based. Conditions: 37° C.; for MIC: Alicyclobacillus acidoterrestris, 100% apple juice. As to the method: The fractions collected in Example 4, as well as Fraction 1 and nisin, a preservative presently in common use in the industry, were tested for activity by incubating for the times indicated in the table below with Alicyclobacillus acidoterrestris (JCM catalogue number 21547, IAM Culture Collection no. 15086) in apple juice. The minimum inhibitory concentration (MIC) was determined by optical density measurements at 600 nm, and by counting colony forming units (CFU) as follows: after four days of incubation at 37° C., juice samples were serially diluted in 10-fold increments (10-fold, 100-fold, 1000-fold, etc.) and plated on Potato Dextrose Agar (PDA). Plates were incubated at 45° C. for at least 48 hours, and colonies were counted to determine CFU/ml.

The mark [1] stands for this setting: 48 h, 2 days of incubation, read-out: MIC (μg/ml) in 100% apple juice 2 days of incubation.
Where [2] appears, read: 72 h, 3 days of incubation, read-out: MIC (μg/ml) in 100% apple juice 3 days of incubation.
Setting [3] is: 120 h, 5 days of incubation, read-out: MIC (μg/ml) in 100% apple juice 5 days of incubation.
[4] abbreviates: 168 h, 7 days of incubation, read-out: MIC (μg/ml) in 100% apple juice 7 days of incubation.

In brackets after ≈: the same amount, converted by molar mass. Like-named read-outs stand apart in the source and are kept apart here.

Regarding `CC(=O)OC1CC2(C)C(C(=O)O)=CCCC2C(C)(CCc2ccoc2)C1C` (stereo not drawn) [Sample 3, 7-α-acetoxyhardwickiic acid], where the note is “2 days of incubation”, the “MIC (μg/ml) in 100% apple juice 2 days of incubation” value worked out at 2.5 µg/mL. The “MIC (μg/ml) in 100% apple juice 3 days of incubation” value (3 days of incubation) was found to be 5 µg/mL. For the same compound, the “MIC (μg/ml) in 100% apple juice 5 days of incubation” value (5 days of incubation) came to 5 µg/mL. Moreover, the “MIC (μg/ml) in 100% apple juice 7 days of incubation” value (7 days of incubation) was determined as 5 µg/mL.
Turning to `C=C1CC[C@@H]2C(C)(C)CCC[C@@]2(C)[C@@H]1CC/C(C)=C/C(=O)O` (single isomer, unassigned) [Sample 7, copalic acid], the MIC is, setting by setting: under setting [1], 1.25 µg/mL (≈ 4.11 µM); under setting [2], 1.25 µg/mL (≈ 4.11 µM); under setting [3], 1.25 µg/mL (≈ 4.11 µM); under setting [4], 1.25 µg/mL (≈ 4.11 µM).
Take `CC1=CCC[C@@H]2[C@@](C)(CC/C(C)=C/C(=O)O)[C@H](C)CC[C@@]12C` (single isomer, unassigned) [Sample 6, Kolavenic acid]: the MIC runs as follows: under setting [1], 1.25 µg/mL (≈ 4.11 µM); under setting [2], 1.25 µg/mL (≈ 4.11 µM); under setting [3], 1.25 µg/mL (≈ 4.11 µM); under setting [4], 1.25 µg/mL (≈ 4.11 µM).

The values above are taken from patent US11918013B2, “Composition for inactivation of gram-positive bacteria and bacterial spores and methods of making and using same” (RESORCIX LTD., priority 2018, dated 2024).
